# How the values were obtained:
# [1] = Pharmacokinetic test (in vivo), oral administration, plasma concentration by LC-MS/MS; set-up: species or system rats; details: 10 mg/kg
# Procedure: Experimental Example 5: Confirmation of Bioavailability of Examples 1 and 6
# Specifically, the drug was administered orally to rats, and blood was collected from the jugular vein at a predetermined time. The collected blood was centrifuged to separate plasma, pretreated, and then the concentration was analyzed by LC-MS/MS. Non-compartmental pharmacokinetic parameters were calculated using WinNonlin (Phoenix™, version 6.1) from the analyzed blood concentration-time data of the drug, and the results are shown in Table 3.
# [2] = Solubility in fasted state simulated intestinal fluid (FaSSIF); type: physicochemical; details: thermodynamic from solid, After 4 hours at room temperature
# Description: Experimental Example 2: Confirmation of Solubility of Examples 1 to 5 in FaSSIF
# The solubility of the solid dispersions prepared in Examples 1 to 5 in fasted state simulated intestinal fluid (FaSSIF) was confirmed, and the results are shown in Table 1.
# Experimental Example 4: Confirmation of Solubility of Examples 6 to 7 in FaSSIF
# The solubility of the solid dispersions prepared in Examples 6 to 7 in fasted state simulated intestinal fluid (FaSSIF) was confirmed in the same manner as in Experimental Example 2, and the results are shown in Table 2.
compound,measurement,setting,value
COCCOc1cc(F)c(N2CCN(c3nc4c(nnn4C)c(=O)[nH]3)CC2)c(F)c1 [Compound of Chemical Formula I],AUClast Fold change,[1]; relative to the compound of Chemical Formula I,1.00
same,AUC(0-t),"[1]; rat, plasma",5460 ng·h/mL
same,Cmax,"[1]; rat, plasma",1020 ng/mL
same,Tmax,"[1]; rat, plasma",1 h
same,half-life,"[1]; rat, plasma",323 min
same,solubility at 4 h,[2]; Table 1 (Experimental Example 2),1.89 µg/mL
same,solubility at 4 h,[2]; Table 2 (Experimental Example 4),1.66 µg/mL

# Reference: EP4656186A1, “NOVEL SOLID DISPERSION AND METHOD FOR PREPARING SAME” (ST Pharm Co., Ltd., priority 2023, dated 2024)
